# Measurements from patent US20090285898A1, “COMBINATION OF DEHYDROEPIANDROSTERONE OR DEHYDROEPIANDROSTERONE-SULFATE WITH AN ANTICHOLINERGIC BRONCHODILATOR FOR TREATMENT OF ASTHMA OR CHRONIC OBSTRUCTIVE PULMONARY DISEASE” (priority 2003, published 2009).
# Values joined by “and” are separate entries in the source; they are usually repeats but may differ in a detail not shown here. Identical values can stand only once.
# Assays:
# [1] = system: Human ASM cells; assay: EGF induced ASM proliferation ([3H]-thymidine incorporation); type: cell-based; settings: for effect on EGF response (ASM proliferation): Mch 10 μM, atropine alone, DHEA-S in the presence or absence of Mch and atropine
# Procedure: Human ASM cells were obtained from the distal trachea of transplant donors in compliance with the University of Pennsylvania's Institutional Review Board. Distal trachealis was dissected free of connective tissue and enzymatically digested to yield approximately 1×10^4 human ASM cells. These cells were then grown to confluence in 10% fetal bovine serum and quiesced in serum-free media containing 1% bovine serum albumin for 24 hours. […] After the initial incubation, cells were then exposed to [^3H]-thymidine and DNA synthesis was measured over 24 hours using thymidine incorporation. The cells were scraped and placed on filters which were then counted using a beta counter. All experiments were repeated in a minimum of three human ASM cell lines. All conditions per experiment were run with six replicates.
# [2] = Particle size after jet milling or spray drying (Malvern Mastersizer X, light microscope); type: physicochemical; settings: two batches
# Procedure: Approximately 1 g sample was passed through the jet mill, once, and approximately 2 g sample were passed through the jet mill twice. […] The resulting solution was sonicated for 3 minutes and appeared fully dispersed. The dispersed solutions were tested on a Malvern Mastersizer X with a small volume sampler (SVS) attachment. One sample of dispersed material was tested 5 times. The median particle size or D (v, 0.5) of unmilled material was 52.56 μm and the % RSD (relative standard deviation) was 7.61 for the 5 values. The D (v, 0.5) for a single pass through the jet mill was 3.90 μm and the % RSD was 1.27, and the D (v, 0.5) from a double pass through the jet mill 3.25 μm and the % RSD was 3.10.
# The solution was spray-dried with a B-191 Mini Spray-Drier (Buchi, Flawil, Switzerland) with an inlet temperature of 55° C., outlet temperature of 40° C., at 100% aspirator, at 10% pump, nitrogen flow at 40 mbar and spray flow at 600 units. The spray-dried product was suspended in hexane and Span85 surfactant added to reduce agglomeration. The dispersions were sonicated with cooling for 3-5 minutes for complete dispersion and the dispersed solutions tested on a Malvern Mastersizer X with a Small Volume Sampler (SVS) attachment. […] Visual examination by light microscope of the dispersions of each batch confirmed that spray drying produced small respirable size particles. […]
# [3] = system: HT-29 SF cells; assay: Reversal of DHEA effect on cell cycle; type: cell-based, human; settings: 25 FM DHEA; supplemented medium; 48 and 72 hours
# [4] = system: HT-29 SF cells; assay: DHEA effect on cell growth; type: cell-based, human; settings: 0, 12.5, 25, 50, or 200 μM; 0-72 hours
# [5] = Nebulizer studies (Pari LC Plus, by-pass collector and impactor); settings: 0.12% NaCl
# Procedure: The nebulizer is filled with 5 mL of solution and nebulization is continued until the output became visually insignificant (4½ to 5 min.). Nebulizer solutions are tested using a California Instruments AS-6 6-stage impactor with a USP throat. The impactor is run at 30 L/min for 8 s to collect a sample following one minute of nebulization time. At all other times during the experiment, the aerosol is drawn through the by-pass collector at approximately 33 L/min. The collection apparatus, nebulizer, and impactor are rinsed with mobile phase and assayed by HPLC. […] This volume is selected as the practical upper limit for use in a clinical study.
# [6] = Solubility of DHEA-S in NaCl solutions; type: physicochemical; settings: 20 mM Na+; Ksp 1316 mM^2; 15° C.
# Source text: Inhalation of pure water can produce a cough stimulus. […] The temperature effect is weaker at high NaCl concentrations.
# [7] = Short-term solution stability of DHEA-S nebulizer formulation; type: physicochemical; settings: 10 mg/mL in 0.12% NaCl
# Procedure: Aliquots of this solution are filled into clear glass vials and stored at RT (24-26° C.) and at 40° C. The samples are checked daily for DHEA-S content, DHEA content, and appearance. For each time point, duplicate samples are withdrawn and diluted from each vial. […] The study is stopped on day three. […] The solution should easily be stable for the day of reconstitution in a clinical trial. The following section describes the aerosol properties of this formulation.
compound,measurement,setting,value
CC(=O)OC(C)C[N+](C)(C)C (centres unmarked),effect on EGF response (ASM proliferation),[1],further augmented
C[C@]12CC[C@H](OS(=O)(=O)[O-])CC1=CC[C@@H]1[C@@H]2CC[C@]2(C)C(=O)CC[C@@H]12.[Na+] [Anhydrous DHEA-S],mean particle size of spray dried material,[2]; Malvern Mastersizer X,5.07±0.70 μm and 6.66±0.91 μm
same,mean particle size of spray dried material,[2]; visual examination by light microscope,2.4 μm and 2.0 μm
"CC(C)CCC[C@@H](C)[C@H]1CC[C@H]2[C@@H]3CC=C4C[C@@H](O)CC[C@]4(C)[C@H]3CC[C@]12C [CH, cholesterol]",prevention of DHEA-induced S phase depletion (G1 arrest),[3],very little effect at 48 hours and no effect at 72 hours
"C[C@]12CC[C@H](O)CC1=CC[C@@H]1[C@@H]2CC[C@]2(C)C(=O)CC[C@@H]12 [DHEA, 3β-hydroxyandrost-5-en-17-one]",effect on growth of HT-29 SF cells,[4],time- and dose-dependent inhibition of growth
"C[C@]12CC[C@H](OS(=O)(=O)[O-])CC1=CC[C@@H]1[C@@H]2CC[C@]2(C)C(=O)CC[C@@H]12.[Na+] [DHEA-S, sodium dehydroepiandrostenone sulfate]",highest solution concentration for clinical trial formulation (no precipitate during nebulization),[5],approximately 7.5 mg/mL
same,effect on EGF response (ASM proliferation),[1],attenuate the EGF response
same,calculated DHEA-S solution concentration,[6],27.5 mM
same,solution appearance on storage,[7]; 40° C.,became cloudy after two days of storage
same,solution appearance on storage,[7]; RT (24-26° C.),slight precipitate is observed on the third day
"C[C@@](O)(CCO)CC(=O)O [MVA, mevalonic acid]",prevention of DHEA-induced S phase depletion (G1 arrest),[3],partially prevented this effect in the initial 48 hours but not after 72 hours
CN1[C@@H]2CC[C@H]1C[C@@H](OC(=O)C(CO)c1ccccc1)C2 (some centres unmarked) [atropine],effect on Mch augmentation of EGF response,[1]; EGF plus 10 μM Mch,reverse the effects of Mch
same,effect on EGF response (ASM proliferation),[1],no effect on EGF response
"EGF: growth factor used to induce DNA synthesis in human ASM cells (NSDSECPLSHDGYCLHDGVCMYIEALDKYACNCVVGYIGERCQYRDLKWWELR; Epidermal growth factor; UniProt P01133 971-1023, looked up)",increase in ASM proliferation,"[1]; EGF (1 ng/ml), thymidine incorporation",8 fold
